How the values were obtained:
ZIKV EDIII protein = molecular target: T1, ZIKV EDIII protein (Zika virus, UniProt Q32ZE1, D679E/I627V/V603I/V629A); assay: SPR binding to ZIKV EDIII protein; details: 1:1 binding model, read-out: KD (binding affinity) to ZIKV EDIII protein
T1 construct: human Fc (C)
Description: Briefly, ZIKV EDIII protein or NS2B-NS3 protein were immobilized on a sensor chip (CM5) using Amine Coupling Kit. Serially diluted ST087010 was added as analytes, and HBS-EP with 10% DMSO (10 mM HEPES, 150 mM NaCl, 3 mM EDTA, 0.05% Tween-20, 10% DMSO, pH 7.4) was used as running buffer. Biacore BK evaluation software (version 1.1) was applied to analyze the data, and the curve was fitted with a 1:1 binding model.

DENV-2 human strain V594 = assay: DENV-2 infection in Ifnar1-/- mice, viral titers by flow cytometry; format: in vivo; details: 20 mg/kg i.p. 12 h before and 6, 24, 48 h after infection; DENV-2 V594 2×10^6 PFU; 3 dpi; vs gossypol and DMSO
From the text: FIG. 11A is a schematic diagram of experimental procedures. […] FIG. 11B depicts representative images of DENV titers in brain, kidney, heart, and sera analyzed by flow cytometry at 3 dpi. C6/36 cells with or without DENV-2 infection were used as positive and negative controls, respectively. The percentage of infected cells to the total number of cells is shown in each figure. FIG. 11C depicts the detection of DENV titers in challenged mouse tissues and sera at 3 dpi. […] The data are presented as mean±s.e.m of duplicate wells (n=2). The experiments were repeated twice with similar results.
ST087010 was evaluated for protection against DENV-2 infection in susceptible Ifnar1^−/− mice. […] Three days after infection, sera and tissues, including brain, kidney, and heart, were collected, and detected for DENV infection using a flow cytometry assay (as described below). […] DENV titers in tissues or sera were determined from ˜20 mg of tissue, or 25 μl of sera, and used for subsequent flow cytometry analysis.
A flow cytometry assay was carried out to analyze DENV-2 titers in the infected mouse tissue supernatants and sera collected above. […] Viral titers (infectious units/ml or infectious units/g) were calculated using the formula: ((% of infected cells)×(total number of cells)×(dilution factor))/(amount of inoculum added to cells). […]

[1] = test system: ZIKV human strain R103451; assay: Protection of Ifnar1-/- mice from lethal ZIKV challenge (survival, weight); format: in vivo; details: 20 mg/kg i.p. 12 h before and 6, 24, 48 h after infection; ZIKV R103451 200 PFU/mouse; 21 days
From the text: FIG. 8A is a schematic diagram of experimental procedures. […] The treated mice were infected with ZIKV human strain R103451 (200 plaque forming unit (PFU)/mouse), followed by evaluation of survival rate (FIG. 8B) or weight changes (FIG. 8C) for 21 days. The data are expressed as mean±s.e.m. of mice in each group (n=6). In a separate experiment, ST087010 or gossypol-treated mice were infected with ZIKV human strain PAN2016 (200, PFU/mouse). Five days post-infection (dpi), viral titers were detected in tissues by plaque assay (FIG. 8D), and ZIKV or caspase-3 signals were measured in eye (FIG. 8E) and testis ([…]) tissues by immunofluorescence staining. The data are expressed as mean±s.e.m. of mice in each group (n=5), and significant differences among different groups are shown as *, **, and ***. The detection limit is 25 PFU/g. ZIKV and caspase-3 (in FIG. 8E-F) were stained with anti-ZIKV and anti-active caspase-3 antibodies, respectively. Nuclei were stained with DAPI (40,6-diamidino-2-phenylindole). Representative images of immunofluorescence staining are shown. Magnification, 63×, and scale bar, 10 μm.
Adult male (3-4 or 7-8-week-old) and pregnant female (8-12-week-old, E12-14) Ifnar1^−/− mice were used in the study. […]
ST087010 was evaluated for protection against ZIKV infection in ZIKV-susceptible Ifnar1^−/− mice. […]

in vitro = details: African green monkey
Description: The cytotoxicity of the Z-medicaments in Vero E6 (ZIKV target cells) was evaluated using the Cell Counting Kit-8 (CCK8).
Briefly, compounds at 2-fold serial dilutions were added to cells (2.0×10^4/well) pre-seeded in 96-well plates. The cells were cultured at 37° C. for 3 days, and incubated with CCK8 solution, followed by measurement of absorbance at 450 nm (A450 value) using microplate reader.

T1 sequence (Q32ZE1 584-695 V603I/I627V/V629A/D679E): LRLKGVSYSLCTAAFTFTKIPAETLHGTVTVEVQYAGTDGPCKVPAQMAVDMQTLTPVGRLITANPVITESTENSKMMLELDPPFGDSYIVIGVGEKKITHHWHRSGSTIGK

| Compound | Kd (ZIKV EDIII protein) [µM] | DENV-2 viral titer (number of infected cells) in brain, kidney, heart and sera (DENV-2 human strain V594) | Survival (mice protected from death) [1] [%] | Weight changes [1] | CC50 at 3 days (in vitro) [µM] |
| --- | --- | --- | --- | --- | --- |
| Cc1cc2c(C(C)C)c(O)c(O)c(/C=N/n3c(=O)[nH][nH]c3=O)c2c(O)c1-c1c(C)cc2c(C(C)C)c(O)c(O)c(/C=N/n3c(=O)[nH][nH]c3=O)c2c1O [ST087010] | 4.95 | significantly reduced number of infected cells | 50 | slight weight loss during 6-12 dpi |  |
| Cc1cc2c(C(C)C)c(O)c(O)c(C=O)c2c(O)c1-c1c(C)cc2c(C(C)C)c(O)c(O)c(C=O)c2c1O [Gossypol, gossypol] |  |  |  |  | 14.49 ± 0.07 |

From US20220313651A1, “INHIBITORS OF ZIKA VIRUS INFECTION” (priority 2019, published 2022)
